Measurements taken from BindingDB's records for doi:10.1016/j.bmc.2013.06.038 (Jagiellonian University Medical College, 2013).

Columns and labels:
[1] = target: T1, Sodium- and chloride-dependent GABA transporter 3 (Mus musculus, UniProt P31650); assay: Inhibition of mouse GAT3-mediated [3H]GABA uptake stably transfected in HEK293 cells
T1 sequence (P31650 whole entry): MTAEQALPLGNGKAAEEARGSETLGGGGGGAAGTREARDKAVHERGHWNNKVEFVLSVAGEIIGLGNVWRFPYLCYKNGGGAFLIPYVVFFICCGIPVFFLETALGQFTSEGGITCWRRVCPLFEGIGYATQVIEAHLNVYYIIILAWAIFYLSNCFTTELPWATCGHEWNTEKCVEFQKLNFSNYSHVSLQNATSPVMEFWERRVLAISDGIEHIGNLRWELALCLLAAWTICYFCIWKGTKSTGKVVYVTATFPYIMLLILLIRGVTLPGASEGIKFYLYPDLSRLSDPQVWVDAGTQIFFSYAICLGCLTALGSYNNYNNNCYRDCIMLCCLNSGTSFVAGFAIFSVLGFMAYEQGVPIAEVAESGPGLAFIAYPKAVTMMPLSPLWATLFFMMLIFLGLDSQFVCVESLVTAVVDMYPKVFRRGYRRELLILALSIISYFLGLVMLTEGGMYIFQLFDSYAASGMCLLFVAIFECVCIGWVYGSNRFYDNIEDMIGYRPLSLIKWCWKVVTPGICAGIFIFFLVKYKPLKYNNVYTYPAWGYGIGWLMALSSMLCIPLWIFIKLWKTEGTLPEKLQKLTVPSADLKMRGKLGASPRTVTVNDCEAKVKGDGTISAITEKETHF

[2] = target: T2, Sodium- and chloride-dependent GABA transporter 2 (Mus musculus, UniProt P31649); assay: Inhibition of mouse GAT2-mediated [3H]GABA uptake stably transfected in HEK293 cells
T2 sequence (P31649 whole entry): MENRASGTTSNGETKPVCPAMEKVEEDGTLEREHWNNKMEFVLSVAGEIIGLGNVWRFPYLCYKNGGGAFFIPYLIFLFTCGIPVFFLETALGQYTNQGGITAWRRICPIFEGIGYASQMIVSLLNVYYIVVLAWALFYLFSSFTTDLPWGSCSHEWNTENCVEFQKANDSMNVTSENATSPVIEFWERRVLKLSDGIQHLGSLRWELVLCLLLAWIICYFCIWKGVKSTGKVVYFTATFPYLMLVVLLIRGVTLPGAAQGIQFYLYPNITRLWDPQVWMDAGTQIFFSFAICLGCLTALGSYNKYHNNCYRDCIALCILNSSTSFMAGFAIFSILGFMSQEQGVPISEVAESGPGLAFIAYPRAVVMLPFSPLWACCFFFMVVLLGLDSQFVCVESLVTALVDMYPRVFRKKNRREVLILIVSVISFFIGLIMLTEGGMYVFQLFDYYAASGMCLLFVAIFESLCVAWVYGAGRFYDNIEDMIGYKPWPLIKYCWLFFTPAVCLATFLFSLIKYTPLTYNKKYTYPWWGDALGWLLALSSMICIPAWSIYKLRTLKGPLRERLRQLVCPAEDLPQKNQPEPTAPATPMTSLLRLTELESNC

SMILES	IC50 [1]	IC50 [2]
O=C(NCc1ccccc1Cl)C(CCO)N1CCC(=C(c2ccccc2)c2ccccc2)CC1 (centres undefined)	56.2 µM	75.9 µM
CN(CCCC(c1ccccc1)c1ccccc1)C(CCO)C(=O)NCc1ccc(F)cc1 (centres undefined)	38.9 µM	41.7 µM
O=C(NCc1ccc(F)cc1)C(CCO)NCCCC(c1ccccc1)c1ccccc1 (centres undefined)	22.9 µM	26.9 µM
C[C@@H](O)C[C@H](C(=O)NCc1ccccc1)N1CCC(=C(c2ccccc2)c2ccccc2)CC1	21.9 µM	49 µM
O=C(NCc1ccc(Cl)cc1)C(CCO)NCCCC(c1ccccc1)c1ccccc1 (centres undefined)	14.8 µM	11 µM
CN(CCC=C(c1ccccc1)c1ccccc1)C(CCO)C(=O)NCc1ccc(Cl)cc1 (centres undefined)	9.55 µM	13.2 µM
Cc1ccc(CNC(=O)[C@@H](C[C@H](C)O)N2CCC(=C(c3ccccc3)c3ccccc3)CC2)cc1	–	50.1 µM
O=C(NCc1ccc(Cl)cc1)C(CCO)N1CCC(=C(c2ccccc2)c2ccccc2)CC1 (centres undefined)	–	19.5 µM
O=C(NCc1ccccc1Cl)C(CCO)NCCCC(c1ccccc1)c1ccccc1 (centres undefined)	18.2 µM	–
Cc1ccc(CNC(=O)C(CCO)NCCCC(c2ccccc2)c2ccccc2)cc1 (centres undefined)	–	17 µM
Cc1ccc(CNC(=O)C(CCO)N(C)CCCC(c2ccccc2)c2ccccc2)cc1 (centres undefined)	–	28.8 µM
CN(CCCC(c1ccccc1)c1ccccc1)C(CCO)C(=O)NCc1ccccc1Cl (centres undefined)	16.2 µM	28.8 µM
Cc1ccc(CNC(=O)C(CCO)N(C)CCC=C(c2ccccc2)c2ccccc2)cc1 (centres undefined)	11.7 µM	14.5 µM
CN(CCC=C(c1ccccc1)c1ccccc1)C(CCO)C(=O)NCc1ccccc1Cl (centres undefined)	–	12.6 µM
CN(CCC=C(c1ccccc1)c1ccccc1)C(CCO)C(=O)NCc1ccccc1 (centres undefined)	13.5 µM	26.9 µM
C[C@H](O)C[C@H](C(=O)NCc1ccccc1)N1CCC(=C(c2ccccc2)c2ccccc2)CC1	30.9 µM	61.7 µM
O=C(NCc1ccccc1Cl)C(CCO)N1CCC(C(c2ccccc2)c2ccccc2)CC1 (centres undefined)	36.3 µM	49 µM

SMILES	IC50 [1]	IC50 [2]
O=C(NCc1ccccc1)C(CCO)N1CCC(C(c2ccccc2)c2ccccc2)CC1 (centres undefined)	41.7 µM	–
O=C(NCc1ccccc1)C(CCO)NCCCC(c1ccccc1)c1ccccc1 (centres undefined)	35.5 µM	28.8 µM
Cc1ccc(CNC(=O)[C@@H](C[C@@H](C)O)N2CCC(=C(c3ccccc3)c3ccccc3)CC2)cc1	57.5 µM	24 µM
C[C@H](O)C[C@H](C(=O)NCc1ccc(Cl)cc1)N1CCC(=C(c2ccccc2)c2ccccc2)CC1	42.7 µM	–
Cc1ccc(CNC(=O)C(CCO)N2CCC(C(c3ccccc3)c3ccccc3)CC2)cc1 (centres undefined)	42.7 µM	38 µM
Cc1ccc(CNC(=O)C(CCO)N2CCC(=C(c3ccccc3)c3ccccc3)CC2)cc1 (centres undefined)	–	30.9 µM
O=C(NCc1ccccc1)C(CCO)N1CCC(=C(c2ccccc2)c2ccccc2)CC1 (centres undefined)	37.2 µM	46.8 µM
CN(CCCC(c1ccccc1)c1ccccc1)C(CCO)C(=O)NCc1ccccc1 (centres undefined)	32.4 µM	39.8 µM
C[C@H](O)C[C@H](C(=O)NCc1ccc(F)cc1)N1CCC(=C(c2ccccc2)c2ccccc2)CC1	55 µM	100 µM
C[C@@H](O)C[C@H](C(=O)NCc1ccc(F)cc1)N1CCC(=C(c2ccccc2)c2ccccc2)CC1	26.9 µM	64.6 µM
O=C(NCc1ccc(F)cc1)C(CCO)N1CCC(=C(c2ccccc2)c2ccccc2)CC1 (centres undefined)	28.2 µM	16.6 µM
CN(CCC=C(c1ccccc1)c1ccccc1)C(CCO)C(=O)NCc1ccc(F)cc1 (centres undefined)	11.2 µM	–
O=C(NCc1ccc(Cl)cc1)C(CCO)N1CCC(C(c2ccccc2)c2ccccc2)CC1 (centres undefined)	32.4 µM	60.3 µM
CN(CCCC(c1ccccc1)c1ccccc1)C(CCO)C(=O)NCc1ccc(Cl)cc1 (centres undefined)	13.2 µM	–
C[C@H](O)C[C@H](C(=O)NCc1ccccc1Cl)N1CCC(=C(c2ccccc2)c2ccccc2)CC1	28.8 µM	–
O=C(NCc1ccc(F)cc1)C(CCO)N1CCC(C(c2ccccc2)c2ccccc2)CC1 (centres undefined)	34.7 µM	55 µM
